System: soybean plants
Assay: Pre- and post-emergence dicamba tolerance of transgenic soybean
Format: in vivo
Conditions: wild type soybean; dicamba at post-V3 stage at 1 lb/a rate
Source text: Several DMO expression units were constructed by operably linking one of each various promoters, CTPs, DMO variants, and 3′UTRs to obtain efficient DMO expression units for product development.

Q: For `COc1c(Cl)ccc(Cl)c1C(=O)O` [dicamba, 3,6-dichloro-o-anisic acid], which injury rate is on record?
A: 60%
